# Experimental data: US7157083B2, “Compositions and methods for treating retroviral infections” (priority 1998, dated 2007)
# Columns and labels:
# [1] = test system: Rojo virus; experiment: Study 3 hyaluronidase sensitization assay: RT activity after Rojo challenge of naive PBMCs; format: cell-based, HIV-1
# Procedure: (§1) Percent virus control (% VC) in the following tables is the mean RT activity (cpm) as a percentage of a virus control. Percent cell control (% CC) is the mean XTT absorbance as a percentage of a cell control.
# (§2) Reverse transcriptase (RT) activity was measured in cell-free supernatants. Tritiated thymidine triphosphate (NEN) (TTP) was resuspended in distilled H2O at […]. Poly rA and oligo dT were prepared as a stock solution which was kept at −20° C. The RT reaction buffer was prepared fresh on a daily basis and consists of 125 μL 1.0 M EGTA, 125 μL d H2O, 110 μL 10% SDS, 50 μL 1.0 M Tris (pH 7.4), 50 μL 1.0 M DTT, and 40μ1.0 M MgCl2. These three solutions were mixed together in a ratio of 2 parts TTP, 1 part poly rA:oligo dT, and 1 part reaction buffer. Ten microliters of this reaction mixture was placed in a round bottom microtiter plate and 15 μL of virus containing supernatant was added and mixed. The plate was incubated at 37° C. in a water bath with a solid support to prevent submersion of the plate and incubated for 60 minutes. Following reaction, the reaction volume was spotted onto pieces of DE81 paper, washed 5 times for 5 minutes each in a 5% sodium phosphate buffer, 2 times for 1 minute each in distilled water, 2 times for 1 minute each in 70% ethanol, and then dried. Opti-Fluor O was added to each sample and incorporated radioactivity was quantitated utilizing a Wallace 1450 Microbetaplus liquid scintillation counter.
# Assay Summary. […] The the monolayers were 3× washed with PBS, with Human PBMCs (5×10e4/well) returned to the monolayer. The PBMCs were either mixed donor, PHA blast, with IL2 supplemented medium, or were single donor non-PHA blast/no IL2 supplemented. After 72 hours, the PBMCs were removed, reset in a 96 well plate and then challenged with a standard MOI of the Rojo virus. The plates were incubated for an additional 6 days and then assayed for RT activity. The studies were produced in triplicate.
# [2] = test system: IIIB (HIV IIIB virus); experiment: Study 4 sensitization, Turpin and standard macrophages: RT activity after IIIB challenge; format: cell-based
# Procedure: as §1, §2
# The macrophage plates were then washed with HBSS multiple times. Fresh mixed pha blast PBMCs (5×10e4/well) were placed on the macrophage cells, allowed to incubate for 72 hours and then harvested and reset in a fresh 96 well plate. The PBMCs were then challenged overnight with the respective virus (IIIB or Rojo) at a standard MOI for that virus. The PBMCs were 5× in plate spin washed with DPBS, incubated 24 hours, at which time 5×10e4 fresh pha blast PBMCs/well were added. The culture was incubated an additional 6 days and then assayed for RT activity.
# Where viability corrections were conducted, they were performed by dividing the RT CPM value by the toxicity absorbance in order to compensate for well to well variations noted in the cell titer toxicity noted.
substance,measurement,setting,value
Hyaluronidase,RT activity % VC,"[1]; 0.20 μg/mL, 5 μL GP120 IIIB, With PHA/IL2",78.6%
same,RT activity % VC,"[1]; 0.20 μg/mL, 5 μL GP120 IIIB, Without PHA/IL2",155.9%
same,RT activity % VC,"[1]; 0.20 μg/mL, 5 μL Rojo, With PHA/IL2",88.8%
same,RT activity % VC,"[1]; 0.20 μg/mL, 5 μL Rojo, Without PHA/IL2",77.8%
same,RT activity % VC,"[1]; 0.20 μg/mL, 10 μL Rojo, Without PHA/IL2",112.8%
same,RT activity % VC,"[1]; 0.20 μg/mL, 50 μL Rojo, With PHA/IL2",79.1%
same,RT activity % VC,"[1]; 0.20 μg/mL, 50 μL Rojo, Without PHA/IL2",125.8%
same,RT activity % VC,"[1]; 0.39 μg/mL, 5 μL GP120 IIIB, With PHA/IL2",116.1%
same,RT activity % VC,"[1]; 0.39 μg/mL, 5 μL GP120 IIIB, Without PHA/IL2",195.6%
same,RT activity % VC,"[1]; 0.39 μg/mL, 5 μL Rojo, With PHA/IL2",79.7%
same,RT activity % VC,"[1]; 0.39 μg/mL, 5 μL Rojo, Without PHA/IL2",102.7%
same,RT activity % VC,"[1]; 0.39 μg/mL, 10 μL Rojo, With PHA/IL2",123.2%
same,RT activity % VC,"[1]; 0.39 μg/mL, 10 μL Rojo, Without PHA/IL2",115.9%
same,RT activity % VC,"[1]; 0.39 μg/mL, 50 μL Rojo, With PHA/IL2",87.6%
same,RT activity % VC,"[1]; 0.39 μg/mL, 50 μL Rojo, Without PHA/IL2",149.4%
same,RT activity % VC,"[1]; 0.78 μg/mL, 5 μL GP120 IIIB, With PHA/IL2",101.9%
same,RT activity % VC,"[1]; 0.78 μg/mL, 5 μL GP120 IIIB, Without PHA/IL2",134.4%
same,RT activity % VC,"[1]; 0.78 μg/mL, 5 μL Rojo, With PHA/IL2",68.2%
same,RT activity % VC,"[1]; 0.78 μg/mL, 5 μL Rojo, Without PHA/IL2",7.0%
same,RT activity % VC,"[1]; 0.78 μg/mL, 10 μL Rojo, With PHA/IL2",110.5%
same,RT activity % VC,"[1]; 0.78 μg/mL, 10 μL Rojo, Without PHA/IL2",97.6%
same,RT activity % VC,"[1]; 0.78 μg/mL, 50 μL Rojo, With PHA/IL2",102.6%
same,RT activity % VC,"[1]; 1.56 μg/mL, 5 μL GP120 IIIB, With PHA/IL2",98.0%
same,RT activity % VC,"[1]; 1.56 μg/mL, 5 μL GP120 IIIB, Without PHA/IL2",158.5%
same,RT activity % VC,"[1]; 1.56 μg/mL, 5 μL Rojo, With PHA/IL2",59.0%
same,RT activity % VC,"[1]; 1.56 μg/mL, 5 μL Rojo, Without PHA/IL2",6.4%
same,RT activity % VC,"[1]; 1.56 μg/mL, 10 μL Rojo, With PHA/IL2",125.9%
same,RT activity % VC,"[1]; 1.56 μg/mL, 10 μL Rojo, Without PHA/IL2",115.6%
same,RT activity % VC,"[1]; 1.56 μg/mL, 50 μL Rojo, With PHA/IL2",115.7%
same,RT activity % VC,"[1]; 1.56 μg/mL, 50 μL Rojo, Without PHA/IL2",146.0%
same,RT activity % VC,"[1]; 3.1 μg/mL, 5 μL GP120 IIIB, With PHA/IL2",85.5%
same,RT activity % VC,"[1]; 3.1 μg/mL, 5 μL GP120 IIIB, Without PHA/IL2",145.7%
same,RT activity % VC,"[1]; 3.1 μg/mL, 5 μL Rojo, With PHA/IL2",56.0%
same,RT activity % VC,"[1]; 3.1 μg/mL, 5 μL Rojo, Without PHA/IL2",9.7%
same,RT activity % VC,"[1]; 3.1 μg/mL, 10 μL Rojo, With PHA/IL2",117.8%
same,RT activity % VC,"[1]; 3.1 μg/mL, 10 μL Rojo, Without PHA/IL2",97.3%
same,RT activity % VC,"[1]; 3.1 μg/mL, 50 μL Rojo, With PHA/IL2",97.3%
same,RT activity % VC,"[1]; 3.1 μg/mL, 50 μL Rojo, Without PHA/IL2",86.8%
same,RT activity % VC,"[1]; 6.3 μg/mL, 5 μL GP120 IIIB, With PHA/IL2",105.3%
same,RT activity % VC,"[1]; 6.3 μg/mL, 5 μL GP120 IIIB, Without PHA/IL2",71.7%
same,RT activity % VC,"[1]; 6.3 μg/mL, 5 μL Rojo, Without PHA/IL2",15.7%
same,RT activity % VC,"[1]; 6.3 μg/mL, 10 μL Rojo, Without PHA/IL2",67.1%
same,RT activity % VC,"[1]; 6.3 μg/mL, 50 μL Rojo, With PHA/IL2",61.3%
same,RT activity % VC,"[1]; 6.3 μg/mL, 50 μL Rojo, Without PHA/IL2",21.3%
same,RT activity % VC,"[1]; 25 μg/mL, 5 μL GP120 IIIB, With PHA/IL2",85.5%
same,RT activity % VC,"[1]; 25 μg/mL, 5 μL GP120 IIIB, Without PHA/IL2",8.8%
same,RT activity % VC,"[1]; 25 μg/mL, 5 μL Rojo, Without PHA/IL2",8.8%
same,RT activity % VC,"[1]; 25 μg/mL, 10 μL Rojo, With PHA/IL2",97.3%
same,RT activity % VC,"[1]; 25 μg/mL, 10 μL Rojo, Without PHA/IL2",2.3%
same,RT activity % VC,"[1]; 25 μg/mL, 50 μL Rojo, With PHA/IL2",73.4%
same,RT activity % VC,"[1]; 25 μg/mL, 50 μL Rojo, Without PHA/IL2",8.4%
same,RT activity % VC,"[2]; 0.097656 μg/mL, GP120IIIB Sensitized, Standard",176.4%
same,RT activity % VC,"[2]; 0.097656 μg/mL, GP120IIIB Sensitized, Turpin",89.0%
same,RT activity % VC,"[2]; 0.097656 μg/mL, IIIB Sensitized, Standard",145.2%
same,RT activity % VC,"[2]; 0.097656 μg/mL, IIIB Sensitized, Turpin",98.7%
same,RT activity % VC,"[2]; 0.195313 μg/mL, GP120IIIB Sensitized, Standard",102.8%
